From ChEMBL document CHEMBL1201862, “PubChem BioAssay data set” (2004)
Active and inactive are the calls of the source.

Assays:
[1] = A Cell Based Secondary Assay To Explore Cytotoxicity of Compounds that Sensitize Mycobacterium Tuberculosis to Beta-Lactam Antibiotics.; assay type: functional
[2] = cells; assay type: functional, cell-based
[3] = Luminescence-based counterscreen assay for KLF5 inhibitors: dose response cell-based high throughput screening assay to identify cytotoxic compounds using the IEC-6 intestinal epithelial cell line. [Related pubchem assays: 1700 (Primary screen.), 1834 (Confirmation screen.), 1858 (Summary AID.), 1905 (Counterscreen.)]; assay type: functional
[4] = cells; assay type: functional, cell-based; remark: listed apart in the source
[5] = molecular target: T1, Microphthalmia-associated transcription factor (Homo sapiens, UniProt O75030); experiment: reducers of TRPM1 reporter luminescence, concentration series – cell-based, SK-MEL-5, cherry-picked, set 3, MITF inhibitor project, dose response (AID 493073); assay type: functional;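 note: SK-MEL-5 melanoma cells with luciferase driven by the MITF target TRPM1 promoter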
T1 sequence (O75030 whole entry): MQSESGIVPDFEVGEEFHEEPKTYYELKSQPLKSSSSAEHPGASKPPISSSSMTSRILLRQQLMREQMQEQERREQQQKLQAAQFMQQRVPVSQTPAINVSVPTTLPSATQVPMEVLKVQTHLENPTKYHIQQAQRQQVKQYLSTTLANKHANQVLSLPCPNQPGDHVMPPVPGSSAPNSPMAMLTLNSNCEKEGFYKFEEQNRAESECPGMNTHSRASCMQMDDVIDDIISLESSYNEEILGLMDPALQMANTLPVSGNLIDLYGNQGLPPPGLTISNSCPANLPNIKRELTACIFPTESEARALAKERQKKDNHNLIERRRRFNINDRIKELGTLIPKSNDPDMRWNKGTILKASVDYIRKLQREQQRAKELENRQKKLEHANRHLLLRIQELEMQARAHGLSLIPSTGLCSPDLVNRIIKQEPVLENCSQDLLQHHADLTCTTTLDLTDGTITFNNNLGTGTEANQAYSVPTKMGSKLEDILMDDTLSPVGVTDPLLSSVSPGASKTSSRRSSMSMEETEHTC

[6] = molecular target: Peroxisome proliferator-activated receptor gamma/Nuclear receptor coactivator 2 (Homo sapiens, UniProt P37231); assay type: functional;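 note: agonist potency for raising coactivator recruitment to the receptor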
[7] = molecular target: Peroxisome proliferator-activated receptor gamma/Nuclear receptor coactivator 1 (Homo sapiens, UniProt P37231); assay type: functional;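 note: agonist potency as compounds enhance coactivator SRC-1 recruitment to PPARgamma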
[8] = molecular target: Peroxisome proliferator-activated receptor gamma/Nuclear receptor coactivator 3 (Homo sapiens, UniProt P37231); assay type: functional;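 note: agonist potency for raising coactivator recruitment to the receptor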
[9] = molecular target: T2, Leucine aminopeptidase (Plasmodium falciparum 3D7, UniProt Q8IL11); experiment: P. falciparum M17LAP inhibitors, primary screen, biochemical, fluorogenic H-Leu-NHMec substrate, 1536-well (AID 1619); assay type: functional
T2 sequence (Q8IL11 whole entry): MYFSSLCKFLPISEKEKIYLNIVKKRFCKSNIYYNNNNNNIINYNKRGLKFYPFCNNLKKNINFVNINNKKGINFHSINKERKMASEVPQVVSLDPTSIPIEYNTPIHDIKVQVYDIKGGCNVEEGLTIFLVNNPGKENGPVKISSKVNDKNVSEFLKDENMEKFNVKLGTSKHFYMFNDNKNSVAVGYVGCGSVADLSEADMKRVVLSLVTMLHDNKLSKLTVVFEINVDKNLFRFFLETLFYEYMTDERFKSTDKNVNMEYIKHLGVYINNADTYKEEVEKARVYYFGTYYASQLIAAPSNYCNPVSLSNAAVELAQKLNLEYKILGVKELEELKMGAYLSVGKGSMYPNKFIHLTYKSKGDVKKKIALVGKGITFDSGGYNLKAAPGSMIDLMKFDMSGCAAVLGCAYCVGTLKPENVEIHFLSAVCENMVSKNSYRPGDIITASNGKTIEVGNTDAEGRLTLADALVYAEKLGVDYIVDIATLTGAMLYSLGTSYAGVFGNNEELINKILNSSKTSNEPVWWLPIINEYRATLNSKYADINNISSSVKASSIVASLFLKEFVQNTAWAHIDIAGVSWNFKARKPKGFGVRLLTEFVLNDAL

[10] = HPDE-C7 pancreatic duct cell viability loss – fluorescence, HTS (AID 430); assay type: functional, cell-based; details: Homo sapiens
[11] = viability loss of HPDE-C7K cells – cell-based, fluorescence, HTS, primary screen (AID 431); assay type: functional; details: Homo sapiens
[12] = viability of uninfected HEp-2 cells – cell-based, HTS, cytotoxicity control for RSV inhibitor project, dose response (AID 2410); assay type: functional; details: human respiratory syncytial virus
[13] = Luminescence Cell-Based Dose Response to Identify Activators of 5'UTR Stem-Loop Driven Prion Protein mRNA Translation in H4-C Neuroglioblastoma Cells. [Related pubchem assays: 1829 (Project Summary), 1814 (Primary HTS)]; assay type: functional
[14] = Luminescence Cell-Based Dose Response HTS to Identify Activators of Luciferase Translation or Activity in H4 […] Cells. [Related pubchem assays: 1829 (Project Summary), 1814 (Primary HTS)]; assay type: functional
[15] = tested on: H4; experiment: Luminescence Cell-Based Dose Response HTS to Identify Activators of 5'UTR Stem-Loop Driven Prion Protein mRNA Translation in H4 Neuroglioblastoma Cells. [Related pubchem assays: 1829 (Project Summary), 1814 (Primary HTS)]; assay type: functional; details: Homo sapiens
[16] = Luminescence Cell-Based Dose Response to Identify Activators of Luciferase Translation or Activity in H4-C Neuroglioblastoma Cells. [Related pubchem assays: 1829 (Project Summary), 1814 (Primary HTS)]; assay type: functional
[17] = Luminescence Cell-Based Dose Confirmation to Identify Activators of 5'UTR Stem-Loop Driven Alpha-Synuclein mRNA Translation in H4 Neuroglioblastoma Cells. [Related pubchem assays: 1829 (Project Summary), 1814 (Primary HTS)]; assay type: functional
[18] = cells; assay type: functional
[19] = luciferase reporter signal suppression in cells – H4 neuroglioma cells, luminescence, dose response (AID 1990); assay type: functional, cell-based
[20] = Luminescence Cell-Based Dose Response HTS to Identify Inhibitors of 5'UTR Stem-Loop Driven Prion Protein mRNA Translation in H4 Neuroglioblastoma Cells. [Related pubchem assays: 1827 (Project Summary), 1813 (Primary HTS)]; assay type: functional
[21] = alpha-synuclein stem-loop luciferase translation blockers – H4 neuroglioma cells, luminescence, confirmation (AID 1988); assay type: functional, cell-based
[22] = molecular target: Luciferin 4-monooxygenase (Photinus pyralis, UniProt P08659); experiment: inhibition of purified Photinus pyralis luciferase – biochemical, luminescence, dose response (AID 1891)
[23] = Luminescence Cell-Based Dose Confirmation HTS to Identify Inhibitors of Platelet Dense Granule Release. [Related pubchem assays: 1663 (Primary HTS), 1678 (Summary of Project)]; assay type: functional
[24] = HEK-293T viability loss after treatment – luminescence, T-cell screen hits, cytotoxicity control for TCR NF-kB inhibitor project, dose response (AID 489026); assay type: functional, cell-based;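 note: cells exposed to compound about 14 hours before the viability readout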
[25] = molecular target: T3, Replicative DNA helicase DnaB (Mycobacterium tuberculosis, UniProt P9WMR3); experiment: DnaB intein splicing inhibitors, dose response, biochemical, cell-free fluorescence (AID 449749); assay type: functional
T3 sequence (P9WMR3 whole entry): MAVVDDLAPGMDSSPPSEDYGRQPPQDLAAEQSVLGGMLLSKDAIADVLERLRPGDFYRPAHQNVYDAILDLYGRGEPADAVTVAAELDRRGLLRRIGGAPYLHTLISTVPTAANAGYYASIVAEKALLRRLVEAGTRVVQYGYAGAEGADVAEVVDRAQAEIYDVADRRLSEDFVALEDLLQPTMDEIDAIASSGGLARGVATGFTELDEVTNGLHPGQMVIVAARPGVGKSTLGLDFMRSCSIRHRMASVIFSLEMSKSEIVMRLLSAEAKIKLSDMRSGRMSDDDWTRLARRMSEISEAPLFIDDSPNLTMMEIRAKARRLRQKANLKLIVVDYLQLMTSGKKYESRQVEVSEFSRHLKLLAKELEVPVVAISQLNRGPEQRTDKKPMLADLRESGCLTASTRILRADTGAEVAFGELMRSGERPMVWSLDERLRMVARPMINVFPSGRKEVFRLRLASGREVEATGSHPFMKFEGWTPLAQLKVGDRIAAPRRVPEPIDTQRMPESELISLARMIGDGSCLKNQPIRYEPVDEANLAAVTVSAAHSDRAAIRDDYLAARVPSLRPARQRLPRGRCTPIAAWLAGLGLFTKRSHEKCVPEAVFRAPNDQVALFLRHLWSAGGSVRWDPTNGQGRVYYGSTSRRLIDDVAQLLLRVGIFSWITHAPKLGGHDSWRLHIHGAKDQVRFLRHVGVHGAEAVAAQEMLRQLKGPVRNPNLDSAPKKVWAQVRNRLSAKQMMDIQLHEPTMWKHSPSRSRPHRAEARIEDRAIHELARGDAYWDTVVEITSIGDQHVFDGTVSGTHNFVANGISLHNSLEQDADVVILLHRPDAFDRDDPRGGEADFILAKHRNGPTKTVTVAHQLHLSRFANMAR

[26] = molecular target: T4, Protein RecA (Mycobacterium tuberculosis, UniProt P9WHJ3); experiment: Fluorescence Cell-Free Homogeneous Dose Retest to Identify Inhibitors of RecA-Intein Splicing Activity. [Related pubchem assays (depositor defined):AID2097, AID2223, AID489010, AID492950]; assay type: functional
T4 sequence (P9WHJ3 whole entry): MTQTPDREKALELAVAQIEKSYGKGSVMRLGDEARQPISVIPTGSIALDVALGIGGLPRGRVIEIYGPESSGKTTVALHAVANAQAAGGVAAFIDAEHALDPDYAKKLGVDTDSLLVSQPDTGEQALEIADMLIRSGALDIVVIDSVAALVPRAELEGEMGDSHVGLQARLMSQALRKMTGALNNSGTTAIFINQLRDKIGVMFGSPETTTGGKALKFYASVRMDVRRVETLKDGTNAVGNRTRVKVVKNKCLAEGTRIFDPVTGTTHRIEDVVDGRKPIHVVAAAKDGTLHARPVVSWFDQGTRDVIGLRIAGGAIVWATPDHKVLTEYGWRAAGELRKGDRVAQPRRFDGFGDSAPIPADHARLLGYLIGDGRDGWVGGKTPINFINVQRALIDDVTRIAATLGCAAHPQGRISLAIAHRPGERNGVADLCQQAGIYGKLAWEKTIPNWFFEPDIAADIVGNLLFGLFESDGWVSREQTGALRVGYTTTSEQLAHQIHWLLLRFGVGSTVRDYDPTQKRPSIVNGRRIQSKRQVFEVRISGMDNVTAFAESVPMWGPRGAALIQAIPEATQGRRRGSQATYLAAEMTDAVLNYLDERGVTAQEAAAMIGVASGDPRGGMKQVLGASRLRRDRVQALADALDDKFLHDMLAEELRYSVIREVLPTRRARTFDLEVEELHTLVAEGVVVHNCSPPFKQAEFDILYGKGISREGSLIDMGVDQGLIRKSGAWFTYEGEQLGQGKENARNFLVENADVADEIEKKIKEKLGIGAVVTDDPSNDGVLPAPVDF

Chain of Peroxisome proliferator-activated receptor gamma/Nuclear receptor coactivator 3 (P37231 whole entry): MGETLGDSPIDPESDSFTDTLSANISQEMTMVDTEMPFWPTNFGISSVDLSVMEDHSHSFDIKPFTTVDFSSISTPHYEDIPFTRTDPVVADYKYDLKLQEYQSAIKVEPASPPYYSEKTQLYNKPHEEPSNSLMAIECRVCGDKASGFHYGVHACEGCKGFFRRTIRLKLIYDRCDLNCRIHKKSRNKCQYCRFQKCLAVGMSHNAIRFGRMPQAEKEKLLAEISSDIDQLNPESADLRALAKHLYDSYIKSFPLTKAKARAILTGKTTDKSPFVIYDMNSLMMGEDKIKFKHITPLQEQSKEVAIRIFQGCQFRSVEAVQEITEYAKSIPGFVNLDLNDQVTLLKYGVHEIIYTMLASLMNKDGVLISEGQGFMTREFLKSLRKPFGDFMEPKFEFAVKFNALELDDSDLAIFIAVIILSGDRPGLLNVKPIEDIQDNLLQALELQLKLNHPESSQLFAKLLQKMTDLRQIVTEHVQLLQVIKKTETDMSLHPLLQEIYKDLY
Chain of Peroxisome proliferator-activated receptor gamma/Nuclear receptor coactivator 3 (Q9Y6Q9 whole entry, further chain): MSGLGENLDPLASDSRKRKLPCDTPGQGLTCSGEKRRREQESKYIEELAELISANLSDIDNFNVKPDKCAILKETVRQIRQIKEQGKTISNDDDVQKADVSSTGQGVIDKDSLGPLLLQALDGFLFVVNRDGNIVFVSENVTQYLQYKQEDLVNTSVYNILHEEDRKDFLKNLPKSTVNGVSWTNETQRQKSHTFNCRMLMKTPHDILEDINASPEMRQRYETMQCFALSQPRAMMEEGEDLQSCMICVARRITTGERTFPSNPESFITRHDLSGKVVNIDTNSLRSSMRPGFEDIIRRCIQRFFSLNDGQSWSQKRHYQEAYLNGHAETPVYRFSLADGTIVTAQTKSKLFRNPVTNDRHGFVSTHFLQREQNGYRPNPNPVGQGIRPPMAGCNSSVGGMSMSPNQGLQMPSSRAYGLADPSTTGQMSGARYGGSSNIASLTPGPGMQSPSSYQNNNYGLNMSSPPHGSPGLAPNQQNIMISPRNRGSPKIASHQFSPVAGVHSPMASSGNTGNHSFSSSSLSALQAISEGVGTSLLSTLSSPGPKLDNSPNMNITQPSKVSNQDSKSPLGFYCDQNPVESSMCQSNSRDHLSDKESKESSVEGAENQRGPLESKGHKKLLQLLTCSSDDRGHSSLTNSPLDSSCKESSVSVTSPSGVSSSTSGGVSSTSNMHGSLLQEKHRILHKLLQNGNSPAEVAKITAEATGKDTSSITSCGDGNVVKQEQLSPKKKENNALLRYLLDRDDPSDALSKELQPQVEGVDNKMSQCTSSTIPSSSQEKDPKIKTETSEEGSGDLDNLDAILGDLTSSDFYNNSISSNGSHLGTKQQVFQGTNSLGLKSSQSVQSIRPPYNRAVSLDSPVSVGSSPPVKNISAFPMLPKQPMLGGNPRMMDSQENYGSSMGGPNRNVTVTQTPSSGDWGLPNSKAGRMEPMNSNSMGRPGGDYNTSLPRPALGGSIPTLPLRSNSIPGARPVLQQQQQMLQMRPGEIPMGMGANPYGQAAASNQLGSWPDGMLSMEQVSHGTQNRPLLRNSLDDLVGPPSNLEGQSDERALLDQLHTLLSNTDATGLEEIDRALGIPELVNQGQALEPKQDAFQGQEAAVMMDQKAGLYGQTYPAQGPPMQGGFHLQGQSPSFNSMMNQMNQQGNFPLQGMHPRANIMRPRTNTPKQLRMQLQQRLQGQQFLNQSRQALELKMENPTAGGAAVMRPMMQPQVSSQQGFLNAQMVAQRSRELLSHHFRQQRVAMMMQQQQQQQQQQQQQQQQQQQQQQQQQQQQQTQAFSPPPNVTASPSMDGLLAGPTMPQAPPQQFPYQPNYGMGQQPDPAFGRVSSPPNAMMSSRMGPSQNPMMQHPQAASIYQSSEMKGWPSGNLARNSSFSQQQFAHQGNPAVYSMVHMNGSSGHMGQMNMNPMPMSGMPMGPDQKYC
Chain of Peroxisome proliferator-activated receptor gamma/Nuclear receptor coactivator 2 (P37231 whole entry): as the sequence (P37231 whole entry) above
Chain of Peroxisome proliferator-activated receptor gamma/Nuclear receptor coactivator 2 (Q15596 whole entry, further chain): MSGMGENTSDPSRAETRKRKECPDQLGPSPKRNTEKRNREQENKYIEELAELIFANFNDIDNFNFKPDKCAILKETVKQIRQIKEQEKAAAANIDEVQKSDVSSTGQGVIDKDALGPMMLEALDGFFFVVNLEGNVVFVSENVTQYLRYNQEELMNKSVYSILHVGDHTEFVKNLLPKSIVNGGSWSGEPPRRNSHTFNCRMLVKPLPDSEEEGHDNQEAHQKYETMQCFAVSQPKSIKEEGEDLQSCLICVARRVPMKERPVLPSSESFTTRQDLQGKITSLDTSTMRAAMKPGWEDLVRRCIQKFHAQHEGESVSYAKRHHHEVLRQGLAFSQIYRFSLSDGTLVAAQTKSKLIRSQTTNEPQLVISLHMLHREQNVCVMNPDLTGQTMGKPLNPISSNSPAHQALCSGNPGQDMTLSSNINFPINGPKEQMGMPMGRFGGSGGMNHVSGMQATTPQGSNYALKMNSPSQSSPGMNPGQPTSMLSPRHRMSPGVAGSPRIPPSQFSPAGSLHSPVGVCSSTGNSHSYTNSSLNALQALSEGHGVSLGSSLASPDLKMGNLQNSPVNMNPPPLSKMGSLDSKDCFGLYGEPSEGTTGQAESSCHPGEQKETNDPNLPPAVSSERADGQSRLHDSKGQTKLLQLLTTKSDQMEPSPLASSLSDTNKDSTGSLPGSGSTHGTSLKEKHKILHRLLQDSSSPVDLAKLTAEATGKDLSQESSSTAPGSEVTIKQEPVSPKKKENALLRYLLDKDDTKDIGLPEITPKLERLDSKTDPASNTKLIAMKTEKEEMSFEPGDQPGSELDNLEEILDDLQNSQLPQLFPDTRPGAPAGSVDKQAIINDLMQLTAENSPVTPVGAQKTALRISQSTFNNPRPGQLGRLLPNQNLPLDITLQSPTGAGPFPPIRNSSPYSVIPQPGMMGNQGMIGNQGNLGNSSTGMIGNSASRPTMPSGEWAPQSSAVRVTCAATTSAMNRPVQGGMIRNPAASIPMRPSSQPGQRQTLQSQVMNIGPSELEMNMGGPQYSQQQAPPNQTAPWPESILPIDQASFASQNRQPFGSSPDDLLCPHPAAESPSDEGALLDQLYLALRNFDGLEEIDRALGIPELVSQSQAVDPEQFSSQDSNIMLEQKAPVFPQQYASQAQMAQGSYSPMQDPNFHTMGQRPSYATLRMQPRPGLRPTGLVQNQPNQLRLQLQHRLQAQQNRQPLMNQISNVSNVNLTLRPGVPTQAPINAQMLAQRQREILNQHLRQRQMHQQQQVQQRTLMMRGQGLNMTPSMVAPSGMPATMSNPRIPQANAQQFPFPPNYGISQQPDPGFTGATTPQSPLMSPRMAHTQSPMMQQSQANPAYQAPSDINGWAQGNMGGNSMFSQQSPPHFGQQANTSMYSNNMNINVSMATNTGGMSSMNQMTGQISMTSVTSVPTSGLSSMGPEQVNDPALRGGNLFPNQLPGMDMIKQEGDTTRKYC
Chain of Luciferin 4-monooxygenase (P08659 whole entry): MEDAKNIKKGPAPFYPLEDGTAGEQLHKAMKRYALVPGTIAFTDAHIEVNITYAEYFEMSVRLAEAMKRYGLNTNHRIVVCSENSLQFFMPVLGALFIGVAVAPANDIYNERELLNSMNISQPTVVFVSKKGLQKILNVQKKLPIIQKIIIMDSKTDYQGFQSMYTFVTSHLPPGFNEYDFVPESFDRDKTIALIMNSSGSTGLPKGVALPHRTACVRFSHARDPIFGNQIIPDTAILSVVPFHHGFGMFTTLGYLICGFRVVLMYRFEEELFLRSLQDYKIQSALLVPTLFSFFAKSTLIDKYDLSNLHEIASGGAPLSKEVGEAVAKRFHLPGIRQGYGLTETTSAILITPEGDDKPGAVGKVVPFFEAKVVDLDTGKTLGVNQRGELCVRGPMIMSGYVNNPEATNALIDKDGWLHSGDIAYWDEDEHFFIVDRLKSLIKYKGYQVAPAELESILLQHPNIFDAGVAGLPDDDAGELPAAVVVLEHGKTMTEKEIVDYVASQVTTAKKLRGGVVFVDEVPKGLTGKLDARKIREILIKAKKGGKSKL

CCO[C@H]1OC(C(=O)NCc2nc3ccccc3[nH]2)=C[C@@H](c2ccc(C(F)(F)F)cc2)[C@@H]1CCCO
CC50 [1]: > 40 µM (active)

Cn1cccc1-c1cc(C(=O)N/N=C/c2cc(Br)ccc2O)[nH]n1
EC50 [2]: 8.69 µM (active) | IC50 [3]: 13.4 µM (not active) | EC50 [4]: > 350 µM (not active) | AC50 [5]: 5.25 µM (active)

Cc1cc(NC(=O)CN2C(=O)NC3(CCC(C)CC3)C2=O)no1 (stereo unspecified)
EC50 [6]: > 79.4 µM (not active) | EC50 [7]: > 79.4 µM (not active) | EC50 [8]: > 79.4 µM (not active)

Cc1nc(SCC(=O)Nc2ccc(F)cc2)c2oc3ccccc3c2n1
EC50 [6]: 9.31 µM (active) | EC50 [7]: > 79.4 µM (not active) | EC50 [8]: > 79.4 µM (not active)

COc1ccc(NC(=O)CSc2nccc(C)n2)cc1
IC50 [9]: 20.3 µM (active)

O=C(Nc1ccccc1NC(=O)c1c(F)c(F)c(F)c(F)c1F)c1c(F)c(F)c(F)c(F)c1F
EC50 [10]: 12.5 µM (active) | EC50 [11]: 17.1 µM (active)

N#C/C(=C\c1cccs1)Sc1nc2ccccc2s1
EC50 [10]: 17.3 µM (active) | EC50 [11]: 16.3 µM (active)

O=C(NCc1cccs1)c1cc(-c2ccccc2)nc2ccccc12
CC50 [1]: > 40 µM (active)

CCOc1ccc(S(=O)(=O)Nc2cc(Sc3nc[nH]n3)c3oc(=O)sc3c2)cc1
CC50 [12]: 26.2 µM (active) | EC50 [10]: 18.6 µM (active) | EC50 [11]: 13.8 µM (active)

CC1=NNC(=O)C1CC(=O)N/N=C/C(C)=C/c1ccccc1 (stereo unspecified)
IC50 [9]: 52.8 µM (active)

CCOC(=O)Nc1c(O)ccc2oc(C)c(-c3ccccc3)c12
IC50 [9]: 17.3 µM (active)

COc1ccc(CC(=O)NCc2nnc(SCC(=O)Nc3cccc(F)c3)n2C)cc1
EC50 [6]: > 79.4 µM (not active) | EC50 [7]: > 79.4 µM (not active) | EC50 [8]: > 79.4 µM (not active)

COc1ccc(S(=O)(=O)Nc2c(F)cccc2F)cc1
EC50 [6]: > 79.4 µM (not active) | EC50 [7]: > 79.4 µM (not active) | EC50 [8]: > 79.4 µM (not active)

O=C1c2n[nH]c(-c3ccccc3O)c2C(c2ccc(F)cc2)N1Cc1ccco1 (stereo unspecified)
EC50 [10]: 16.9 µM (active) | EC50 [11]: 18.7 µM (active)

Cc1ccc(NC(=O)ON=C2CCCC2)cc1
EC50 [13]: 1.53 µM (active) | EC50 [14]: 0.777 µM (active) | EC50 [15]: > 120 µM (not active) | EC50 [16]: 0.501 µM (active) | EC50 [17]: 0.547 µM (active) | IC50 [18]: 43.2 µM (active)

NC(=NOCc1ccc([N+](=O)[O-])cc1)c1ccccn1
EC50 [19]: 0.201 µM (active) | EC50 [20]: 0.223 µM (active) | EC50 [21]: 0.143 µM (active) | EC50 [22]: 9.46 µM (active) | EC50 [23]: 7.95 µM (active) | IC50 [3]: > 39.8 µM (not active) | IC50 [24]: > 80 µM (inactive)

O=S(=O)(CCSc1ccccn1)c1nc2ccccc2s1
EC50 [10]: 6.03 µM (active) | EC50 [11]: 8.47 µM (active) | AC50 [25]: 5.68 µM (active) | EC50 [26]: 9.21 µM (active)

COC(=O)CSc1nc2cc3c(cc2cc1C#N)OCO3
EC50 [6]: 5.17 µM (active) | EC50 [7]: 7.89 µM (active) | EC50 [14]: 0.176 µM (active) | EC50 [8]: 7.25 µM (active)
